From US10849881B2, “Octahydro-cyclobuta[1,2-c;3,4-c′]dipyrrol-2-yl” (Hoffmann-La Roche Inc., priority 2013, dated 2020)

Molecular target: ATX (human His-tagged) (Homo sapiens (Human), UniProt Q13822)
Assay: Human ATX enzyme inhibition assay (fluorescence quenching, MR121 substrate)
Assay type: biochemical
Details: 30 nM ATX, 1 μM MR121 substrate, 30° C., pH 8.0
Method in brief: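 Fluorescence quenching assay with MR121/tryptophan-labelled substrate analogue in Tris-HCl buffer (140 mM NaCl, CaCl2, MgCl2, 0.01% Triton X-100, pH 8.0). Serially diluted compounds were preincubated 15 min at 30 °C with 30 nM ATX (final), then 1 µM substrate (final) added and incubated 15 min at 30 °C.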

Structure (SMILES)	IC50 [nM]
N#Cc1ccc2cc(C(=O)N3C[C@@H]4[C@H](C3)[C@H]3CN(C(=O)c5ccc6[nH]nnc6c5)C[C@@H]43)ccc2c1 [Example 1.007, 6-[(3aS,3bS,6aR,6bR)-5-(1H-benzotriazole-5-carbonyl)-octahydro-cyclobuta[1,2-c;3,4-c′]dipyrrole-2-carbonyl]-naphthalene-2-carbonitrile]	62
O=C(c1ccc2[nH]nnc2c1)N1CC2C(C1)C1CN(C(=O)c3cc(OCC(F)(F)F)c(C4CC4)nn3)CC21 (stereo not shown) [Example 1.095]	32
O=C(c1ccc2[nH]nnc2c1)N1C[C@@H]2[C@H](C1)[C@H]1CN(C(=O)c3cc4ccccc4cn3)C[C@@H]21 [Example 1.039, [(3aR,3bS,6aR,6bS)-5-(1H-benzotriazole-5-carbonyl)-octahydro-cyclobuta[1,2-c;3,4-c′]dipyrrol-2-yl]-isoquinolin-3-yl-methanone]	3330
O=C(c1cnc(OCC(F)(F)F)c(C(F)(F)F)c1)N1C[C@@H]2[C@H](C1)[C@H]1CN(C(=O)c3ccc4[nH]nnc4c3)C[C@@H]21 [Example 1.105, (1H-benzotriazol-5-yl)-{(3aS,3bS,6aR,6bR)-5-[6-(2,2,2-trifluoro-ethoxy)-5-trifluoromethyl-pyridine-3-carbonyl]-octahydro-cyclobuta[1,2-c;3,4-c′]dipyrrol-2-yl}-methanone]	8
O=C(c1ccc(-c2ccc(F)cc2)cc1)N1C[C@@H]2[C@H](C1)[C@H]1CN(C(=O)c3ccc4[nH]nnc4c3)C[C@@H]21 [Example 1.002, [(3aS,3bS,6aR,6bR)-5-(1H-benzotriazole-5-carbonyl)-octahydro-cyclobuta[1,2-c;3,4-c′]dipyrrol-2-yl]-(4′-fluoro-biphenyl-4-yl)-methanone]	64
COc1cccc(C(=O)N2C[C@@H]3[C@H](C2)[C@H]2CN(C(=O)c4ccc5[nH]nnc5c4)C[C@@H]32)c1 [Example 1.028, [(3aS,3bS,6aR,6bR)-5-(1H-benzotriazole-5-carbonyl)-octahydro-cyclobuta[1,2-c;3,4-c′]dipyrrol-2-yl]-(3-methoxy-phenyl)-methanone]	2830
Cn1c(C(=O)N2C[C@@H]3[C@H]4CN(C(=O)c5ccc6[nH]nnc6c5)C[C@H]4[C@@H]3C2)cc2ccccc21 [Example 1.024, [(3aR,3bS,6aR,6bS)-5-(1H-benzotriazole-5-carbonyl)-octahydro-cyclobuta[1,2-c;3,4-c′]dipyrrol-2-yl]-(1-methyl-1H-indol-2-yl)-methanone]	377
O=C(c1ccc2[nH]nnc2c1)N1C[C@@H]2[C@H](C1)[C@H]1CN(C(=O)C3CCc4ccccc4O3)C[C@@H]21 (stereo partly drawn) [Example 1.042, [(3aR,3bS,6aR,6bS)-5-(1H-benzotriazole-5-carbonyl)-octahydro-cyclobuta[1,2-c;3,4-c′]dipyrrol-2-yl]-chroman-2-yl-methanone]	632
O=C(c1ccc2[nH]nnc2c1)N1C[C@@H]2[C@H](C1)[C@H]1CN(C(=O)N3CCc4cc(C(F)(F)F)ccc4C3)C[C@@H]21 [Example 4, [(3aR,3bS,6aR,6bS)-5-(1H-Benzotriazole-5-carbonyl)-octahydro-cyclobuta[1,2-c;3,4-c′]dipyrrol-2-yl]-(6-trifluoromethyl-3,4-dihydro-1H-isoquinolin-2-yl)-methanone]	70
COc1c(C(=O)N2C[C@@H]3[C@H]4CN(C(=O)c5ccc6[nH]nnc6c5)C[C@H]4[C@@H]3C2)ccc2ccccc12 [Example 1.022, [(3aS,3bS,6aR,6bR)-5-(1H-benzotriazole-5-carbonyl)-octahydro-cyclobuta[1,2-c;3,4-c′]dipyrrol-2-yl]-(1-methoxy-naphthalen-2-yl)-methanone]	155
Cc1ccc2cc(C(=O)N3C[C@@H]4[C@H](C3)[C@H]3CN(C(=O)c5ccc6[nH]nnc6c5)C[C@@H]43)ccc2c1 [Example 1.013, [(3aS,3bS,6aR,6bR)-5-(1H-benzotriazole-5-carbonyl)-octahydro-cyclobuta[1,2-c;3,4-c′]dipyrrol-2-yl]-(6-methyl-naphthalen-2-yl)-methanone]	54

Continued, values first:

IC50 [nM]	Structure (SMILES)
8.5	O=C(c1cc(OCC2CC2)c2ccccc2c1)N1C[C@@H]2[C@H](C1)[C@H]1CN(C(=O)c3ccc4[nH]nnc4c3)C[C@@H]21 [Example 1.025, [(3aS,3bS,6aR,6bR)-5-(1H-benzotriazole-5-carbonyl)-octahydro-cyclobuta[1,2-c;3,4-c′]dipyrrol-2-yl]-(4-cyclopropylmethoxy-naphthalen-2-yl)-methanone]
5	CCn1ccc2c(OC(C)C)cc(C(=O)N3C[C@@H]4[C@H]5CN(C(=O)c6ccc7[nH]nnc7c6)C[C@H]5[C@@H]4C3)cc21 [Example 1.074, [(3aS,3bS,6aR,6bR)-5-(1H-benzotriazole-5-carbonyl)-octahydro-cyclobuta[1,2-c;3,4-c′]dipyrrol-2-yl]-(1-ethyl-4-isopropoxy-1H-indol-6-yl)-methanone]
11	O=C(c1ccc2cc(-c3ccccc3)ccc2c1)N1C[C@@H]2[C@H](C1)[C@H]1CN(C(=O)c3ccc4[nH]nnc4c3)C[C@@H]21 [Example 1.015, [(3aS,3bS,6aR,6bR)-5-(1H-benzotriazole-5-carbonyl)-octahydro-cyclobuta[1,2-c;3,4-c′]dipyrrol-2-yl]-(6-phenyl-naphthalen-2-yl)-methanone]
14	O=C(OCc1ccc(OC(F)(F)F)cc1)N1C[C@@H]2[C@H](C1)[C@H]1CN(C(=O)c3ccc4[nH]nnc4c3)C[C@@H]21 [Example 2, (3aR,3bS,6aR,6bS)-5-(1H-Benzotriazole-5-carbonyl)-octahydro-cyclobuta[1,2-c;3,4-c′]dipyrrole-2-carboxylic acid 4-trifluoromethoxy-benzyl Ester]
40.5	CC(C)Oc1cc(C(=O)N2C[C@@H]3[C@H]4CN(C(=O)c5ccc6[nH]nnc6c5)C[C@H]4[C@@H]3C2)cc2[nH]ccc12 [Example 1.061, [(3aS,3bS,6aR,6bR)-5-(1H-benzotriazole-5-carbonyl)-octahydro-cyclobuta[1,2-c;3,4-c′]dipyrrol-2-yl]-(4-isopropoxy-1H-indol-6-yl)-methanone]
3.5	CCOc1nc(C(=O)N2C[C@@H]3[C@H]4CN(C(=O)c5ccc6[nH]nnc6c5)C[C@H]4[C@@H]3C2)cc2ccccc12 [Example 1.073, [(3aR,3bS,6aR,6bS)-5-(1H-benzotriazole-5-carbonyl)-octahydro-cyclobuta[1,2-c;3,4-c′]dipyrrol-2-yl]-(1-ethoxy-isoquinolin-3-yl)-methanone]
29	COCCCN1CC(C(=O)N2C[C@@H]3[C@H]4CN(C(=O)c5ccc6[nH]nnc6c5)C[C@H]4[C@@H]3C2)Cc2ccccc21 (stereo partly drawn) [Example 1.056, [(3aS,3bR,6aS,6bR)-5-(1H-benzotriazole-5-carbonyl)-octahydro-cyclobuta[1,2-c;3,4-c′]dipyrrol-2-ylH1-(3-methoxy-propyl)-1,2,3,4-tetrahydro-quinolin-3-yl]-methanone]
13	Cn1c(C(=O)N2C[C@@H]3[C@H]4CN(C(=O)c5ccc6[nH]nnc6c5)C[C@H]4[C@@H]3C2)cc2cc(OC(F)(F)F)ccc21 [Example 1.032, [(3aR,3bS,6aR,6bS)-5-(1H-benzotriazole-5-carbonyl)-octahydro-cyclobuta[1,2-c;3,4-c′]dipyrrol-2-yl]-(1-methyl-5-trifluoromethoxy-1H-indol-2-yl)-methanone]
8	O=C(c1ccc2[nH]nnc2c1)N1C[C@@H]2[C@H](C1)[C@H]1CN(C(=O)c3cc4ccc(OC(F)(F)F)cc4[nH]3)C[C@@H]21 [Example 1.011, [(3aR,3bS,6aR,6bS)-5-(1H-benzotriazole-5-carbonyl)-octahydro-cyclobuta[1,2-c;3,4-c′]dipyrrol-2-yl]-(6-trifluoromethoxy-1H-indol-2-yl)-methanone]
8	O=C(c1ccc(-c2ccc(Cl)cc2)cc1)N1C[C@@H]2[C@H](C1)[C@H]1CN(C(=O)c3ccc4[nH]nnc4c3)C[C@@H]21 [Example 1.017, [(3aS,3bS,6aR,6bR)-5-(1H-benzotriazole-5-carbonyl)-octahydro-cyclobuta[1,2-c;3,4-c′]dipyrrol-2-yl]-(4′-chloro-biphenyl-4-yl)-methanone]
4.7	O=C(c1ccc2[nH]nnc2c1)N1C[C@@H]2[C@H](C1)[C@H]1CN(C(=O)c3cc4ccccc4c(OCC(F)(F)F)n3)C[C@@H]21 [Example 1.060, [(3aR,3bS,6aR,6bS)-5-(1H-benzotriazole-5-carbonyl)-octahydro-cyclobuta[1,2-c;3,4-c′]dipyrrol-2-yl]-[1-(2,2,2-trifluoro-ethoxy)-isoquinolin-3-yl]-methanone]
7.5	CCOc1cc(C(=O)N2C[C@@H]3[C@H](C2)[C@H]2CN(C(=O)[C@@H]4CCc5[nH]nnc5C4)C[C@@H]32)nc2cc(Cl)ccc12 [Example 1.077, (7-chloro-4-ethoxy-quinolin-2-yl)-[(3aR,3bS,6aR,6bS)-5-((R)-4,5,6,7-tetrahydro-1H-benzotriazole-5-carbonyl)-octahydro-cyclobuta[1,2-c;3,4-c′]dipyrrol-2-yl]methanone]
4.5	O=C(OCc1cc(Cl)cc(Cl)c1)N1C[C@@H]2[C@H](C1)[C@H]1CN(C(=O)c3ccc4[nH]nnc4c3)C[C@@H]21 [Example 2.001, (3aR,3bS,6aR,6bS)-5-(1H-Benzotriazole-5-carbonyl)-octahydro-cyclobuta[1,2-c;3,4-c′]dipyrrole-2-carboxylic Acid 3,5-dichloro-benzyl Ester]
8	O=C(/C=C/c1ccc(OC(F)(F)F)cc1)N1C[C@@H]2[C@H](C1)[C@H]1CN(C(=O)[C@@H]3CCc4[nH]nnc4C3)C[C@@H]21 [Example 1.006, (E)-1-[(3aS,3bS,6aR,6bR)-5-((R)-4,5,6,7-tetrahydro-1H-benzotriazole-5-carbonyl)-octahydro-cyclobuta[1,2-c;3,4-c′]dipyrrol-2-yl]-3-(4-trifluoromethoxy-phenyl)-propenone]
